We go through 40 compounds from patent US12012398B2, “Bicyclic compounds as androgen receptor modulators” (NIDO BIOSCIENCES, INC., priority 2021, dated 2024).

Structures can show the parent of a compound that is named as a salt. Some results are limits rather than exact numbers.

The test system of one experiment is LNCaP cells expressing ARR2PB-FireflyLuc and CMV-RenillaLuc. Nature of the experiment: LNCaP ARR2PB-FireflyLuc reporter assay, antagonist mode.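 Also: IC50 bins in nM.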 The experiment is classed as cell-based. To be noted: +0.5 nM DHT, 48 h at 37° C., read-out: LNCap Antagonist Archive: IC50. The protocol:
LNCaP cells expressing ARR2PB-FireflyLuc and CMV-RenillaLuc were treated with indicated concentrations of test compounds, enzalutamide (negative control), or DHT (positive control)+/−0.5 nM DHT for 48 h at 37° C. Fluorescent signals were read with the ImageXpress Micro Confocal System. Remaining activity (antagonist mode) was calculated as % Remaining Activity=100×[(ReadSample−LCave)/(HCave−LCave)] where HC is cells treated with 0.5 nM DHT only and LC is cells treated with 10 uM enzalutamide+0.5 nM DHT. Activation (agonist mode) was calculated as % Activation=100×[(ReadSample−LCave)/(HCave−LCave)] where HO is cells treated with 1 uM DHT and LC is cells treated with DMSO. Dose response curves and IC50 values were calculated using non-linear regression analysis in XLfit.
The designation “A” indicates an IC50 value of >10 μM, “B” indicates an IC50 value between 1 μM and 10 μM; “C” indicates an IC50 value between 100 nM and 1 μM; and “D” indicates an IC50 value of less than 100 nM.
As to `CN(C(=O)c1cc2ccnc(Cl)c2n1C)C12CC(F)(C1)C2` [Example 128, 7-chloro-N-{3-fluorobicyclo[1.1.1]pentan-1-yl}-N,1-dimethylpyrrolo[2,3-c]pyridine-2-carboxamide], the IC50 was in the range of 0.1 to 1 µM.

The experiment is the same for the next values; noted with them: Homo sapiens, LNCaP, 48 h, +0.5 nM DHT, 48 h at 37° C., read-out: LNCap Antagonist Archive: IC50.
As for `CCn1c(C(=O)N(C)C23CC(F)(C2)C3)cc2ccnc(C#N)c21` [Example 151, 7-cyano-1-ethyl-N-(3-fluorobicyclo[1.1.1]pentan-1-yl)-N-methyl-1H-pyrrolo[2,3-c]pyridine-2-carboxamide], the IC50 was in the range of 0.1 to 1 µM.

`CN(C(=O)c1cc2cccc(C(F)(F)F)c2[nH]1)c1ccccc1` [Example 25, N-methyl-N-phenyl-7-(trifluoromethyl)-1H-indole-2-carboxamide]: the 50% inhibitory concentration (IC50) lay within 0.1 to 1 µM.

For `Cn1c(C(=O)NC23CC(F)(C2)C3)c(F)c2ccnc(Cl)c21` [Example 140, 7-chloro-3-fluoro-N-{3-fluorobicyclo[1.1.1]pentan-1-yl}-1-methylpyrrolo[2,3-c]pyridine-2-carboxamide], the concentration for half-maximal inhibition (IC50) was in the range of 0.1 to 1 µM. Turning to `CN(C(=O)c1cc2ccc(F)cc2o1)c1ccc(F)cc1` [Example 39, 6-fluoro-N-(4-fluorophenyl)-N-methyl-1-benzofuran-2-carboxamide], the 50% inhibitory concentration (IC50) fell in the range of 1 to 10 µM. Take `C[C@H]1OCC[C@@H]1NC(=O)c1cc2cccc(Cl)c2[nH]1` [Example 61, 7-chloro-N-[(2R,3S)-2-methyloxolan-3-yl]-1H-indole-2-carboxamide]: the IC50 was in the range of 0.1 to 1 µM.

Turning to `COCCn1c(C(=O)NC23CC(F)(C2)C3)cc2ccnc(Cl)c21` [Example 139, 7-chloro-N-{3-fluorobicyclo[1.1.1]pentan-1-yl}-1-(2-methoxyethyl)pyrrolo[2,3-c]pyridine-2-carboxamide], the concentration for half-maximal inhibition (IC50) lay within 1 to 10 µM. `O=C(NC12CC(C1)C2)c1[nH]c2c(Cl)cccc2c1C1CC1` [Example 105, N-[bicyclo[1.1.1]pentan-1-yl]-7-chloro-3-cyclopropyl-1H-indole-2-carboxamide]: the 50% inhibitory concentration (IC50) fell in the range of 1 to 10 µM. As for `COc1nccc2cc(C(=O)NC34CC(F)(C3)C4)n(C)c12` [Example 118, N-{3-fluorobicyclo[1.1.1]pentan-1-yl}-7-methoxy-1-methylpyrrolo[2,3-c]pyridine-2-carboxamide], the IC50 lay within 1 to 10 µM. Consider `COCCN(C(=O)c1cc2ccc(F)cc2[nH]1)c1ccc(Cl)cn1` [Example 160], for which the IC50 was in the range of 1 to 10 µM.

Turning to `C[Si](C)(C)CCOCn1c(C(=O)NC23CC(O)(C2)C3)cc2cccc(Cl)c21` [Example 88, 7-chloro-N-(3-hydroxybicyclo[1.1.1]pentan-1-yl)-1-((2-(trimethylsilyl)ethoxy)methyl)-1H-indole-2-carboxamide], the IC50 lay in the range of 1 to 10 µM. The same measure, in the same setting: in the case of `CN(C(=O)c1cc2ccnc(Cl)c2[nH]1)C12CC(C1)C2` [Example 95, N-[bicyclo[1.1.1]pentan-1-yl]-7-chloro-N-methyl-1H-pyrrolo[2,3-c]pyridine-2-carboxamide] it was 0.1 to 1 µM. Consider `Cn1c(C(=O)NC23CC(F)(C2)C3)cc2ccnc(C(F)(F)F)c21` [Example 154, N-(3-fluorobicyclo[1.1.1]pentan-1-yl)-1-methyl-7-(trifluoromethyl)-1H-pyrrolo[2,3-c]pyridine-2-carboxamide], for which the concentration for half-maximal inhibition (IC50) was 1 to 10 µM. The same measure, in the same setting: in the case of `O=C(NC12CC(O)(C1)C2)c1cc2cccc(Cl)c2[nH]1` [Example 115, 7-chloro-N-[3-hydroxybicyclo[1.1.1]pentan-1-yl]-1H-indole-2-carboxamide] it was greater than 10 µM. In the case of `O=C(NC12CC(C1)C2)c1cc2ccncc2[nH]1` [Example 103, N-[bicyclo[1.1.1]pentan-1-yl]-1H-pyrrolo[2,3-c]pyridine-2-carboxamide], the 50% inhibitory concentration (IC50) was greater than 10 µM.

Turning to `CN(C(=O)c1cc2cccc(Cl)c2[nH]1)C1CCOCC1` [Example 72, 7-chloro-N-methyl-N-(oxan-4-yl)-1H-indole-2-carboxamide], the IC50 is greater than 10 µM. With `CN(C(=O)c1cc2cccc(C#N)c2[nH]1)c1ccccc1` [Example 21, 7-cyano-N-methyl-N-phenyl-1H-indole-2-carboxamide], the half-maximal inhibitory concentration (IC50) was 0.1 to 1 µM. With `C[C@@H]1OCC[C@@H]1NC(=O)c1cc2cccc(Cl)c2[nH]1` [Example 62, 7-chloro-N-[(2S,3S)-2-methyloxolan-3-yl]-1H-indole-2-carboxamide], the IC50 is 1 to 10 µM. Regarding `CN(C(=O)c1cc2ccnc(Cl)c2[nH]1)C1CC(F)(F)C1` [Example 101, 7-chloro-N-(3,3-difluorocyclobutyl)-N-methyl-1H-pyrrolo[2,3-c]pyridine-2-carboxamide], the IC50 fell in the range of 1 to 10 µM. On the same count and under the same terms, in the case of `CN(C(=O)c1cc2cccc(Cl)c2[nH]1)c1ccc(C#N)cc1` [Example 33, 7-chloro-N-(4-cyanophenyl)-N-methyl-1H-indole-2-carboxamide] it was 1 to 10 µM; in that of `COCCN(C(=O)c1cc2ccc(F)cc2[nH]1)c1ncccn1` [Example 161], 1 to 10 µM. Take `O=C(c1cc2cccc(Cl)c2[nH]1)N1CCCC1` [Example 71, 7-chloro-2-(pyrrolidine-1-carbonyl)-1H-indole]: the concentration for half-maximal inhibition (IC50) was greater than 10 µM.

For the compound `COCCNC(=O)c1cc2ccc(F)cc2n1-c1ncccn1` [Example 54, 6-fluoro-N-(2-methoxyethyl)-1-(pyrimidin-2-yl)-1H-indole-2-carboxamide], the half-inhibitory concentration (IC50) was greater than 10 µM.

With `CN(C(=O)c1cc2cccc(Cl)c2[nH]1)C1CCNC1` (centres unmarked) [Example 40, 7-chloro-N-methyl-N-(pyrrolidin-3-yl)-1H-indole-2-carboxamide trifluoroacetic acid salt], the half-maximal inhibitory concentration (IC50) was greater than 10 µM. For the compound `CN(C(=O)c1cc2cccc(C(F)(F)F)c2[nH]1)c1ccc(C#N)cc1` [Example 27, N-(4-cyanophenyl)-N-methyl-7-(trifluoromethyl)-1H-indole-2-carboxamide], the IC50 was in the range of 1 to 10 µM. For `CN(C(=O)c1cc2ccnc(Cl)c2n1C)C12CC(F)(C1)C2` [Example 128, 7-chloro-N-{3-fluorobicyclo[1.1.1]pentan-1-yl}-N,1-dimethylpyrrolo[2,3-c]pyridine-2-carboxamide], the IC50 is less than 0.1 µM. On to `Cc1nccc2cc(C(=O)NC34CCC(C3)C4)n(C)c12` [Example 152, N-(bicyclo[2.1.1]hexan-1-yl)-1,7-dimethyl-1H-pyrrolo[2,3-c]pyridine-2-carboxamide], for which the IC50 was 1 to 10 µM. As for `CNc1nccc2cc(C(=O)NC34CC(F)(C3)C4)n(C)c12` [Example 124, N-{3-fluorobicyclo[1.1.1]pentan-1-yl}-1-methyl-7-(methylamino)pyrrolo[2,3-c]pyridine-2-carboxamide], the 50% inhibitory concentration (IC50) is greater than 10 µM. In the case of `Cc1c(C(=O)N(C)C23CC(C2)C3)[nH]c2c(Cl)cccc12` [Example 104, N-[bicyclo[1.1.1]pentan-1-yl]-7-chloro-N,3-dimethyl-1H-indole-2-carboxamide], the IC50 was greater than 10 µM.

On to `Cc1nccc2cc(C(=O)N(C)C34CC(F)(C3)C4)n(C)c12` [Example 132, N-{3-fluorobicyclo[1.1.1]pentan-1-yl}-N,1,7-trimethylpyrrolo[2,3-c]pyridine-2-carboxamide], for which the IC50 is 1 to 10 µM. `Cn1c(C(=O)NC23CC(F)(C2)C3)cc2ccnc(C#N)c21` [Example 131, 7-cyano-N-{3-fluorobicyclo[1.1.1]pentan-1-yl}-1-methylpyrrolo[2,3-c]pyridine-2-carboxamide]: the half-maximal inhibitory concentration (IC50) is 0.1 to 1 µM. Regarding `CN(C)c1nccc2cc(C(=O)NC34CC(F)(C3)C4)n(C)c12` [Example 125, 7-(dimethylamino)-N-{3-fluorobicyclo[1.1.1]pentan-1-yl}-1-methylpyrrolo[2,3-c]pyridine-2-carboxamide], the IC50 lay within 1 to 10 µM. Regarding `CC(C)N(Cc1ccco1)C(=O)c1cc2cccc(C#N)c2[nH]1` [Example 3, 7-cyano-N-(furan-2-ylmethyl)-N-isopropyl-1H-indole-2-carboxamide], the IC50 lay within 1 to 10 µM. Turning to `CN(C(=O)c1cc2cccc(Cl)c2[nH]1)C1CCCC1` [Example 30, 7-chloro-N-cyclopentyl-N-methyl-1H-indole-2-carboxamide], the IC50 lay in the range of 0.1 to 1 µM.

For the compound `Cc1nccc2cc(C(=O)NC34CC(F)(C3)C4)n(C)c12` [Example 130, N-{3-fluorobicyclo[1.1.1]pentan-1-yl}-1,7-dimethylpyrrolo[2,3-c]pyridine-2-carboxamide], the half-maximal inhibitory concentration (IC50) lay within 1 to 10 µM. On to `CN(C(=O)c1cc2ccc(F)cc2[nH]1)c1ccccn1` [Example 13, 6-fluoro-N-methyl-N-(pyridin-2-yl)-1H-indole-2-carboxamide], for which the IC50 was in the range of 1 to 10 µM.

Consider `COCCN(C(=O)c1cc2cccc(Cl)c2[nH]1)c1ccc(C#N)cc1F` [Example 79, 7-chloro-N-(4-cyano-2-fluorophenyl)-N-(2-methoxyethyl)-1H-indole-2-carboxamide], for which the IC50 is 1 to 10 µM.

For `CN(C(=O)c1cc2cccc(Cl)c2[nH]1)C1CC(C)(C)NC(C)(C)C1` [Example 75, 7-chloro-N-methyl-N-(2,2,6,6-tetramethylpiperidin-4-yl)-1H-indole-2-carboxamide], the 50% inhibitory concentration (IC50) was greater than 10 µM. In the case of `CN(C(=O)c1cc2ccc(F)cc2o1)c1ccccc1` [Example 24, 6-fluoro-N-methyl-N-phenyl-1-benzofuran-2-carboxamide], the half-maximal inhibitory concentration (IC50) fell in the range of 1 to 10 µM.

`CN(C(=O)c1cc2cccc(Cl)c2[nH]1)c1ccccc1` [Example 19, 7-chloro-N-methyl-N-phenyl-1H-indole-2-carboxamide]: the IC50 lay in the range of 0.1 to 1 µM. As for `O=C(NC12CC(F)(C1)C2)c1cc2ccnc(Cl)c2n1CCO` [Example 138, 7-chloro-N-{3-fluorobicyclo[1.1.1]pentan-1-yl}-1-(2-hydroxyethyl)pyrrolo[2,3-c]pyridine-2-carboxamide], the 50% inhibitory concentration (IC50) lay within 1 to 10 µM.
